According to the supplement of paper PMC10307832:

How the values were obtained:
Assay in all cases: relative viability (nuclei count vs DMSO), 5 days (fraction); higher = more cells survive
[1] = compound: C1CN(CCC1C(C2=CC3=C(C=C2)OCO3)(C4=CC5=C(C=C4)OCO5)O)C(=O)OC6=CC=C(C=C6)[N+](=O)[O-] [JZL-184]
Outline: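 Acceptance criteria were a control CV below 25% and at least one doubling per plate. Lung cancer cell lines in 1536-well plates got five library-drug doses (not always all listed) √10 apart by pinning and were left 5 days with no medium change. Viability divides treated-well nuclei by vehicle-well nuclei and is the median across plates. Nuclei were counted by MetaXpress from 4× Hoechst images.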

[2] = compound: C1CN(CCC1C(C2=CC3=C(C=C2)OCO3)(C4=CC5=C(C=C4)OCO5)O)C(=O)OC6=CC=C(C=C6)[N+](=O)[O-] [JZL-184] + CC1(C)CCC(c2ccc(Cl)cc2)=C(CN2CCN(c3ccc(C(=O)NS(=O)(=O)c4ccc(N[C@H](CCN5CCOCC5)CSc5ccccc5)c(S(=O)(=O)C(F)(F)F)c4)cc3)CC2)C1 [Navitoclax] (partner 0.5 µM)
Outline: (§1)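 Lung cancer cell lines in 1536-well plates got either a single drug or a fixed anchor-drug dose together with five library-drug doses (not always all listed) in √10 steps, by pin tool, on the day after seeding. Nuclei were counted after 5 days, and relative viability is the treated-to-vehicle ratio of nuclei counts. Values are medians of duplicate plates.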

[3] = compound: C1CN(CCC1C(C2=CC3=C(C=C2)OCO3)(C4=CC5=C(C=C4)OCO5)O)C(=O)OC6=CC=C(C=C6)[N+](=O)[O-] [JZL-184] + COc1cccc2cc(-c3nc([C@H]4CC[C@H](C(=O)O)CC4)n4ncnc(N)c34)[nH]c12 [OSI-027] (partner 0.5 µM)
Outline: as §1

[4] = compound: C1CN(CCC1C(C2=CC3=C(C=C2)OCO3)(C4=CC5=C(C=C4)OCO5)O)C(=O)OC6=CC=C(C=C6)[N+](=O)[O-] [JZL-184] + CS(=O)(=O)N1CCN(Cc2cc3nc(-c4cccc5[nH]ncc45)nc(N4CCOCC4)c3s2)CC1 [Pictilisib] (partner 1 µM)
Outline: as §1

[5] = compound: C1CN(CCC1C(C2=CC3=C(C=C2)OCO3)(C4=CC5=C(C=C4)OCO5)O)C(=O)OC6=CC=C(C=C6)[N+](=O)[O-] [JZL-184] + Nc1ncn([C@H]2C[C@H](O)[C@@H](CO)O2)c(=O)n1 [Decitabine] (partner 2 µM)
Outline: as §1

Cell Line | relative viability ([1]; 0.04 µM) | relative viability ([1]; 0.4 µM) | relative viability ([1]; 1.265 µM) | relative viability ([1]; 4 µM) | relative viability ([2]; first compound 0.04 µM) | relative viability ([2]; first compound 0.4 µM) | relative viability ([2]; first compound 1.265 µM) | relative viability ([2]; first compound 4 µM) | relative viability ([3]; first compound 0.04 µM) | relative viability ([3]; first compound 0.4 µM) | relative viability ([3]; first compound 1.265 µM) | relative viability ([3]; first compound 4 µM) | relative viability ([4]; first compound 0.04 µM) | relative viability ([4]; first compound 0.4 µM) | relative viability ([4]; first compound 1.265 µM) | relative viability ([4]; first compound 4 µM) | relative viability ([5]; first compound 0.04 µM) | relative viability ([5]; first compound 0.4 µM) | relative viability ([5]; first compound 1.265 µM) | relative viability ([5]; first compound 4 µM)
PC-3 [JPC-3] | 1.04 | 0.978 | 1.1 | 1.01 | 0.794 | 0.838 | 0.791 | 0.77 | 0.732 | 0.724 | 0.782 | 0.749 | 0.773 | 0.735 | 0.773 | 0.738 | 1.02 | 0.825 | 0.874 | 0.822
PC-14 | 1.24 | 0.974 | 1.07 | 0.936 | 0.998 | 1 | 0.964 | 0.992 | 1.07 | 0.831 | 0.853 | 0.72 | 0.867 | 0.619 | 0.722 | 0.589 | 0.343 | 0.199 | 0.198 | 0.241
RERF-LC-KJ | 1.05 | 0.981 | 1.02 | 0.988 | 1.01 | 1.1 | 0.951 | 0.825 | 0.58 | 0.625 | 0.562 | 0.478 | 0.508 | 0.513 | 0.676 | 0.47 | 0.854 | 0.706 | 0.808 | 0.56
SK-LU-1 | 1.11 | 0.982 | 1.15 | 1.02 | 1.36 | 0.866 | 0.915 | 0.823 | 0.405 | 0.341 | 0.423 | 0.358 | 0.631 | 0.517 | 0.7 | 0.611 | 0.673 | 0.584 | 0.705 | 0.698
SK-MES-1 | 1.1 | 0.982 | 1.07 | 0.939 | 1.35 | 1.14 | 1.12 | 1.17 | 0.597 | 0.625 | 0.673 | 0.535 | 0.348 | 0.408 | 0.389 | 0.349 | 0.448 | 0.381 | 0.405 | 0.403
SW 1573 | 1.15 | 0.926 | 1.08 | 1.02 | 0.913 | 0.912 | 1.21 | 1.16 | 0.733 | 0.548 | 0.591 | 0.525 | 0.609 | 0.364 | 0.491 | 0.498 | 0.818 | 0.449 | 0.484 | 0.463
UMC-11 | 1.12 | 0.951 | 1.08 | 0.976 | 0.349 | 0.318 | 0.349 | 0.302 | 0.612 | 0.461 | 0.499 | 0.457 | 1.16 | 0.808 | 0.984 | 0.824 | 0.738 | 0.521 | 0.616 | 0.733
